Where a name gives a salt, the structure may show the parent alone.
Tests used:
[1] = tested on: MCSP-positive cells; assay: Ex vivo human skin organ culturing with HEI, MCSP staining; format: cell-based; details: 0.01% HEI, 5 days, abdominal skin
[2] = target: T1, heparanase (Homo sapiens, UniProt Q9Y251); assay: Heparanase assay on heparan sulfate immobilization plate with A431 cell lysate; format: biochemical; details: 0.0005%, 0.005% or 0.05% HEI, 3 hours at 37° C., FIG. 8
T1 construct: endogenous in cells; host or cells: A431 cell lysate
T1 sequence (Q9Y251 158-543 limits assumed): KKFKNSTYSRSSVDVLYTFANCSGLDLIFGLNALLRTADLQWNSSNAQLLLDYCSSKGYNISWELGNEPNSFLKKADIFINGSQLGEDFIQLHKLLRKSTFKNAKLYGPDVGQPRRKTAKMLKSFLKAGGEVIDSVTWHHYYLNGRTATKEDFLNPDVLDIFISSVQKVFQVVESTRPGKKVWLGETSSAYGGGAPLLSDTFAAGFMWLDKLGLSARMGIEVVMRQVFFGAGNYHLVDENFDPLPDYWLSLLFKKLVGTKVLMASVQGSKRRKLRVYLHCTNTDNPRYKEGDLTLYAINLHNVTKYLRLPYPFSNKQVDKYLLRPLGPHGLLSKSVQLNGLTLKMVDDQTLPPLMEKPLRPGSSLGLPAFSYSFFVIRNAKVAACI
T1 sequence (Q9Y251 36-109 limits assumed): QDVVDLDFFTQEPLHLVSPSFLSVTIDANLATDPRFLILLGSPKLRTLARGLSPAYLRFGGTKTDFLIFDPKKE
Method: A heparanase assay was carried out using a heparan sulfate immobilization plate, as described in Behzad F, et al., Analytical Biochemistry, 320, pp. 207-213, 2003. Specifically, heparan sulfate (Seikagaku, Tokyo, Japan) was reacted with photobiotin to prepare biotinylated heparan sulfate. The biotinylated heparan sulfate was fixed onto a carbohydrate-binding surface plate (Coastar, Tokyo, Japan). A431 cell lysate (50 μg/ml) and 0% HEI, 0.0005% HEI, 0.005% HEI or 0.05% HEI were added onto the biotinylated heparan sulfate immobilized plate, incubated for 3 hours at 37° C., and then rinsed with PBS-T. Next, peroxidase-avidin (Vector Laboratories, Inc. CA, USA) was incubated at 37° C. for 1 hour. A 3,3′,5,5′-tetramethylbenzidine (TMB) solution (Bio-Rad, Tokyo, Japan) was added, and the plate was further incubated at room temperature for 30 minutes. The absorbance at 450 nm was measured to determine the heparanase inhibiting effect.

[3] = target: T2, recombinant human MMP-9 (Homo sapiens, UniProt P14780); assay: MMP-9 colorimetric drug discovery kit assay; format: biochemical; details: 0.0001%, 0.001% and 0.01% HEI, FIG. 9
T2 construct: purchased Enzo Life Sciences Inc
T2 sequence (P14780 107-444 limits assumed): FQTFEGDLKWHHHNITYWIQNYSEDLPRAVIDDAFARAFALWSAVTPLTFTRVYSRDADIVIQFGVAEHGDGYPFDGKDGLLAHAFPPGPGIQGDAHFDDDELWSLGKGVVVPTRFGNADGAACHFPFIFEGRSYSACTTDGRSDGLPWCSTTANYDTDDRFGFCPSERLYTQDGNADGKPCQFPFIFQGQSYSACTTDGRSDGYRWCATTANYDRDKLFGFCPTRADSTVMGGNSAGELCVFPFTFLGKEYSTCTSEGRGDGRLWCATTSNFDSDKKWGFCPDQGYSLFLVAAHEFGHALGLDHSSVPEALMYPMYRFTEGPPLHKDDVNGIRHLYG
Method: An MMP9 assay was carried out using a Matrix Metalloproteinase-9 (MMP-9) colorimetric drug discovery kit (Enzo Life Sciences Inc.). Specifically, HEI was added to a recombinant human MMP-9 enzyme solution to 0.0001%, 0.001% and 0.01% concentration. After mixing with chromogenic MMP-9 substrate, the absorbance at 412 nm was measured every other minute. The MMP-9 inhibition rate (%) for HEI was calculated from the slope of the absorbance (OD/min).

[4] = tested on: filaggrin; assay: Ex vivo human skin organ culturing with HEI, filaggrin staining; format: cell-based; details: 0.01% HEI, 5 days
Method: (§1) The taken samples were cultured for 5 days in culture medium containing 0.01% HEI. […] The excess moisture adhering to the cultured skin sample was wiped off with a Kimtowel, and after allowing it to stand for 5 minutes, a Vapometer was used for TEWL measurement, and a Corneometer was used to measure the stratum corneum moisture content.
DAPI was also used for nuclear staining.

[5] = tested on: human skin; assay: Ex vivo human skin organ culturing with HEI, TEWL and stratum corneum moisture; format: cell-based; details: 0.01% HEI, 5 days
Method: as §1

[6] = In vivo human application test of HEI solution on the face, TEWL and stratum corneum moisture; details: 1.5% HEI solution on one side of the face, twice a day for 4 weeks, water on other side
Method: Next, 20 males from 20 to 50 years of age were asked to apply a 1.5% HEI solution on one side of the face and water on the other side of the face, twice a day for 4 weeks. Before application, 2 weeks after application and 4 weeks after application, the TEWL was measured using a Vapometer, and a Corneometer was used to measure the stratum corneum moisture content.

[7] = tested on: laminin 511; assay: Ex vivo human skin organ culturing with HEI, laminin 511 staining; details: 0.01% HEI, 5 days, abdominal skin
[8] = tested on: MCSP-positive cells; assay: Tissue culture of human skin with MMP and heparanase inhibiting agents, MCSP staining; format: cell-based; details: CGS27023A 10 μM and BIPBIPU 10 μM added together, 4 days of culturing, abdominal skin
Text: DAPI was also used for nuclear staining. […] DAPI was also used for nuclear staining.

[9] = tested on: PDGF-BB; assay: Membrane array of cytokines in epidermis protein extract of three-dimensional skin model; format: cell-based; details: CGS27023A 10^−5 M and BIPBIPU 10^−5 M added together, 2nd, 4th and 7th day, data not shown
Text: The epidermis was collected from the skin model on the 2nd day, 4th day and 7th day of culturing, and RIPA buffer by Nacalai was used to prepare a protein extract. Using a membrane array kit (ab134002) by Abcam Co., the amounts of different cytokines in the protein extract were detected using a LAS-1000UVmini by Fujifilm and digitized with the included software, and a graph was drawn (data not shown). The cytokines whose amounts increased compared to the control were selected as candidate cytokines that promote type V collagen expression. Three cytokines including PDGF-BB were selected as candidate cytokines.

[10] = tested on: laminin 511; details: CGS27023A 10 μM and BIPBIPU 10 μM added together, 4 days of culturing, abdominal skin
Method: The taken samples were cultured for 4 days in culture medium containing the MMP9 inhibiting agent CGS270234 (10 μM) and the heparanase inhibiting agent BIPBIU (10 μM).

[11] = tested on: gene COL5A1 for type V collagen; assay: COL5A1 expression in human fibroblasts after addition of recombinant cytokine; format: cell-based; details: normal human fibroblasts, 24 hours
Method: The selected recombinant cytokine proteins were purchased from R&D Co. Normal human fibroblasts from skin harvested from 14-month-old children were cultured for 24 hours in 10% FBS-added DMEM, and the medium in the cultured product was exchanged with another medium added to DMEM medium containing 25% serum for a prescribed concentration of each cytokine, after which culturing was continued for 24 hours. After culturing, the cells were collected and the mRNA was extracted with Trizol. The cDNA was rapidly prepared, and the aforementioned primers were used for real-time PCR to evaluate the gene expression levels of the gene COL5A1 for type V collagen (FIG. 15).

With `O=C1NCCN1CCO` [HEI, 1-(2-Hydroxyethyl)-2-imidazolidinone] the “MCSP-positive cell count on the basal membrane after culturing” value [1] was “maintained”, the heparanase inhibiting effect [2] was “inhibit heparanase activity in a dose-dependent manner” and the MMP9 inhibition [3] was “inhibit MMP9 activity in a dose-dependent manner”. The filaggrin protein expression [4] was “tendency for increase”, the “stratum corneum moisture content” value ([5]; Corneometer) was “increased” and the TEWL ([5]; Vapometer) was “decreased”. For the same molecule, the TEWL [6] was “decreased”, the “stratum corneum moisture content” value [6] was “increased” and the “amount of laminin 511 after culturing” value [7] was “maintained”.

With `O=C(Nc1ccc(-c2nc3ccccc3[nH]2)cc1)Nc1ccc(-c2nc3ccccc3[nH]2)cc1` [BIPBIPU, 1-[4-(1H-benzoimidazol-2-yl)phenyl]-3-[4-(1H-benzoimidazol-2-yl)phenyl]urea] the “MCSP-positive cells after tissue culture” value [8] was “maintenance or augmentation of MCSP” and the “amount of PDGF-BB in epidermis protein extract compared to the control” value [9] was “increased”.

With `COc1ccc(S(=O)(=O)N(Cc2cccnc2)[C@@H](C(=O)NO)C(C)C)cc1` [CGS27023A, N-hydroxy-2(R)-[[(4-methoxy-phenyl)sulfonyl](3-picolyl)amino]-3-methylbutanamide hydrochloride] the “MCSP-positive cells after tissue culture” value [8] was “maintenance or augmentation of MCSP”, the “amount of PDGF-BB in epidermis protein extract compared to the control” value [9] was “increased” and the “laminin 511 in the basal membrane after tissue culture” value [10] was “augmentation of laminin 511”.

B1: PDGF-BB: recombinant cytokine protein purchased from R&D Co. (protein, UniProt P01127 82-190, looked up)
Platelet-derived growth …: SLGSLTIAEPAMIAECKTRTEVFEISRRLIDRTNANFLVWPPCVEVQRCSGCCNNRNVQCRPTQVQLRPVQVRKIEIVRKKPIFKKATVTLEDHLACKCETVAAARPVT
With B1 the “type V collagen production (COL5A1 gene expression)” value [11] was “significantly increased”.

— patent US11564959B2 (SHISEIDO COMPANY, LTD., priority 2016, dated 2023)
